Results reported in the SangsterLogP compilation.

assay: method code SF-AS, from DOI: 10.1002/hlca.19830660215; conditions: not given

SMILES	logP
COc1ccccc1C(=O)N1CCN(C)CC1	0.29
CCN(CC)CCNC(=O)c1ccccc1OC	1.98
CCN(CC)CCCNC(=O)c1ccccc1OC	1.76
CN(C)CCNC(=O)c1ccccc1	1.1
COc1ccccc1C(=O)NCCN	0
COc1ccccc1C(=O)NCCN(C)C	1.14
COc1ccccc1C(=O)NCCCN(C)C	1.27

same assay, conditions: pH 11.0

SMILES	logD
NCCCCNC(=O)c1ccccc1	0.58
CCN(CC)CCCNC(=O)c1ccccc1	1.56
COc1ccccc1C(=O)NCCCCN	0.58
CCN(CC)CCNC(=O)c1ccccc1	1.84
CN(C)CCCNC(=O)c1ccccc1	1.27
NCCCNC(=O)c1ccccc1	0.3
NCCNC(=O)c1ccccc1	0.06
